Each structure is given as a SMILES string.

This is an account of results in US20200157635A1, “DIAGNOSTIC AND THERAPEUTIC METHODS FOR CANCER” (Genentech, Inc., priority 2017, published 2020).

The subject of the experiment is patients with NSCLC. As to the kind of experiment: POPLAR phase II trial: atezolizumab vs docetaxel, efficacy by PD-L1, CXCL9, IFNG expression level. In kind it is in vivo, human. The procedure:
An RNA-based molecular assay was used to evaluate the association between clinical response to treatment with atezolizumab (MPDL3280A), an anti-PD-L1 antibody, and expression levels of PD-L1, CXCL9, and IFNG in individuals with NSCLC enrolled in a phase II clinical trial in which atezolizumab was administered as a monotherapy.
The POPLAR (Clinical Trial ID No.: NCT01903993) patient population evaluated for PD-L1, CXCL9, and IFNG expression levels consisted of 215 patients. Patients were eligible for enrollment in the POPLAR study if they had locally advanced or metastatic (e.g., stage IIIB, stage IV, or recurrent) NSCLC; disease progression during or following treatment with a prior platinum-containing regimen for locally advanced, unresectable/inoperable, or metastatic NSCLC, or disease recurrence within 6 months of treatment with a platinum-based adjuvant/neoadjuvant regimen; measurable disease, as defined by RECIST v1.1; and an ECOG performance status of 0 or 1. Participants were randomized to receive either atezolizumab at a dose of 1200 mg intravenously every three weeks or docetaxel 75 mg per square meter (mg/m^2) intravenously every three weeks. Treatment with atezolizumab could be continued as long as participants were experiencing clinical benefit, i.e., in the absence of unacceptable toxicity or symptomatic deterioration attributed to disease progression.
To evaluate whether PD-L1, CXCL9, and IFNG gene expression status was associated with patient response to atezolizumab (MPDL3280A) treatment, the gene expression level of PD-L1, CXCL9, and IFNG was assessed in pre-treatment, FFPE tumor samples obtained from each patient. RNA was isolated from the FFPE tumor sections and PD-L1, CXCL9, and IFNG gene expression was measured using PCR-based methodology (Fluidigm). The expression level, expressed as the cycle threshold (Ct) for each of PD-L1, CXCL9, and IFNG was normalized to the expression level of a housekeeping gene (e.g., TMEM55B). The normalized expression value, dCt, where dCt(target gene)=Ct(control gene)−Ct(target gene) for each of PD-L1, CXCL9, and IFNG, was then averaged to obtain a single numerical averaged dCt value for the aggregate expression level of PD-L1, CXCL9, and IFNG.
Tumor specimens obtained from the patients were categorized into different high or low expression level subgroups based on the immune-score expression level of PD-L1, CXCL9, and IFNG relative to a cut-off value for a given percentile (25th, 50th, or 75th percentile) of the population. The 25th percentile was defined by the immune-score expression levels of PD-L1, CXCL9, and IFNG greater than or equal to 25% of all immune-score expression levels of PD-L1, CXCL9, and IFNG in the population analyzed. The 50th percentile was defined by the immune-score expression levels of PD-L1, CXCL9, and IFNG greater than or equal to 50% of all immune-score expression levels of PD-L1, CXCL9, and IFNG in the population analyzed. The 75th percentile was defined by the immune-score expression levels of PD-L1, CXCL9, and IFNG greater than or equal to 75% of all immune-score expression levels of PD-L1, CXCL9, and IFNG in the population analyzed. […]
The OS, PFS, and ORR endpoints from the POPLAR clinical trial were evaluated against the PD-L1, CXCL9, and IFNG expression level cut-offs defined herein (e.g., the 25%, 50%, and 75% expression level quartiles). […]

With `CC(=O)O[C@@]12CO[C@@H]1C[C@H](O)[C@@]1(C)C(=O)[C@H](O)C3=C(C)[C@@H](OC(=O)[C@H](O)[C@@H](NC(=O)OC(C)(C)C)c4ccccc4)C[C@@](O)([C@@H](OC(=O)c4ccccc4)[C@H]21)C3(C)C` [docetaxel], the ORR is, setting by setting: (BEP (n = 113 vs 112)) 8%; (ITT (n = 144 vs 143)) 15% vs 15%; (PD-L1, CXCL9, IFNG expression level percentile ≥25%) 13%; (PD-L1, CXCL9, IFNG expression level percentile ≥50% (median)) 15%; (PD-L1, CXCL9, IFNG expression level percentile ≥75%) 13%.
